# Activity calls are given as the source filed them. The calls are words filed in the database; no cut-off is given here.
# What was measured:
# [1] = tested on: Human immunodeficiency virus; assay: HIV-latency reversing activity in human NH2 cells at 10 nM pretreated with PKC inhibitor, Go6983 for 1 hr followed by compound addition and measured after 12 hrs by luciferase based assay; type: functional, organism-based
# [2] = tested on: Human immunodeficiency virus; assay: HIV-latency reversing activity in human J-Lat Tat-GFP Clone A2 cells at 10 nM measured after 24 hrs by fluorescence based analysis; type: functional, organism-based
# [3] = tested on: Human immunodeficiency virus; assay: HIV-latency reversing activity in human NH2 cells at 10 nM measured after 24 hrs by luciferase based assay; type: functional, organism-based
# [4] = tested on: Human immunodeficiency virus; assay: Reactivation of latent HIV in human J-Lat Tat-GFP Clone A2 cells measured after 24 hrs by fluorescence based analysis; type: functional, organism-based; conditions: dose 0.5-40 nM
# [5] = tested on: Human immunodeficiency virus; assay: Reactivation of latent HIV in human J-Lat 2D10 cells measured after 24 hrs by fluorescence based analysis; type: functional, organism-based; conditions: dose 0.5-40 nM
# [6] = tested on: Human immunodeficiency virus; assay: Reactivation of latent HIV in human NH1 cells measured after 24 hrs by luciferase based analysis; type: functional, organism-based; conditions: dose 0.5-10 nM
# [7] = tested on: Human immunodeficiency virus; assay: Reactivation of latent HIV in human NH2 cells at 10 nM by luciferase based analysis; type: functional, organism-based; conditions: time 6-36 hrs, TDE = time-dependent effect
# [8] = tested on: Human immunodeficiency virus; assay: Reactivation of latent HIV in human NH2 cells measured after 24 hrs by luciferase based analysis; type: functional, organism-based; conditions: dose 0.5-10 nM
# [9] = tested on: Human immunodeficiency virus; assay: Reactivation of latent HIV in human J-Lat Tat-GFP Clone A2 cells at 10 nM by fluorescence based analysis; type: functional, organism-based; conditions: time 6-36 hrs, TDE = time-dependent effect
# [10] = tested on: Human immunodeficiency virus; assay: Reactivation of latent HIV in human J-Lat 2D10 cells at 10 nM by fluorescence based analysis; type: functional, organism-based; conditions: time 6-36 hrs, TDE = time-dependent effect
# [11] = tested on: Human immunodeficiency virus; assay: Reactivation of latent HIV in human NH1 cells at 10 nM by luciferase based analysis; type: functional, organism-based; conditions: time 6-36 hrs, TDE = time-dependent effect
# J-Lat Tat-GFP Clone A2 [12] = assay: Cytotoxicity against human J-Lat Tat-GFP Clone A2 cells at 1 uM incubated for 72 hrs; type: toxicity, cell-based; conditions: j-lat tat-gfp clone a2, 72 h
# NH2 [13] = assay: Activation of NFkappaB signalling pathway in human NH2 cells assessed as induction of IkappaBalpha degradation measured after 1 hr by Western blot analysis; type: cell-based; conditions: filed as activator, dose 0-80 nM
# J-Lat Tat-GFP Clone A2 [14] = assay: Activation of NFkappaB signalling pathway in human J-Lat Tat-GFP Clone A2 cells assessed as induction of IkappaBalpha degradation measured after 1 hr by Western blot analysis; type: cell-based; conditions: filed as activator, dose 0-80 nM
# NH2 [15] = assay: Activation of NFkappaB signalling pathway in human NH2 cells assessed as induction of IkappaBalpha degradation at 40 nM by Western blot analysis; type: cell-based; conditions: filed as activator, time 5-120 min, TDE = time-dependent effect
# J-Lat Tat-GFP Clone A2 [16] = assay: Activation of NFkappaB signalling pathway in human J-Lat Tat-GFP Clone A2 cells assessed as induction of IkappaBalpha degradation at 40 nM by Western blot analysis; type: cell-based; conditions: filed as activator, time 5-120 min, TDE = time-dependent effect
# NH2 [17] = assay: Activation of NFkappaB signalling pathway in human NH2 cells assessed as increase in translocation of p65 from cytoplasm to nucleus at 40 nM measured after 15 to 60 mins by Western blot analysis; type: cell-based; conditions: filed as activator, time 15-60 min
# J-Lat Tat-GFP Clone A2 [18] = assay: Activation of NFkappaB signalling pathway in human J-Lat Tat-GFP Clone A2 cells assessed as increase in translocation of p65 from cytoplasm to nucleus at 40 nM measured after 15 to 60 mins by Western blot analysis; type: cell-based; conditions: filed as activator, time 15-60 min
# [19] = tested on: Human immunodeficiency virus; assay: HIV-latency reversing activity in human NH2 cells at 10 nM pretreated with PDTC for 1 hr followed by compound addition and measured after 12 hrs by luciferase based assay; type: functional, organism-based
# [20] = tested on: Human immunodeficiency virus; assay: Reactivation of latent HIV in human J-Lat Tat-GFP Clone A2 cells assessed as increase in GFP expression at 0 to 20 nM measured after 24 hrs by fluorescence microscopy; type: functional, organism-based; conditions: dose 0-20 nM
# [21] = tested on: Human immunodeficiency virus; assay: Reactivation of latent HIV in human NH1 cells assessed as fold change measured after 24 hrs by luciferase based analysis relative to -prostratin; type: functional
# [22] = tested on: Human immunodeficiency virus; assay: Reactivation of latent HIV in human NH2 cells assessed as fold change measured after 24 hrs by luciferase based analysis relative to -prostratin; type: functional
# [23] = tested on: Human immunodeficiency virus; assay: Reactivation of latent HIV in human J-Lat Tat-GFP Clone A2 cells assessed as increase in GFP expression at 10 nM by live fluorescence imaging analysis; type: functional, organism-based; conditions: time 6-36 hrs, TDE = time-dependent effect
# J-Lat Tat-GFP Clone A2 [24] = assay: Upregulation of BZW1 gene expression in human J-Lat Tat-GFP Clone A2 cells at 10 nM measured after 6 hrs by transcriptome analysis; type: functional, cell-based
# J-Lat Tat-GFP Clone A2 [25] = assay: Upregulation of CD69 gene expression in human J-Lat Tat-GFP Clone A2 cells at 10 nM measured after 6 hrs by transcriptome analysis; type: functional, cell-based
# J-Lat Tat-GFP Clone A2 [26] = assay: Upregulation of CHCHD2 gene expression in human J-Lat Tat-GFP Clone A2 cells at 10 nM measured after 6 hrs by transcriptome analysis; type: functional, cell-based
compound,measurement,setting,value
C=C(C)[C@]12C[C@@H](C)[C@@]34O[C@]5(CCCCCCC[C@H](C)[C@H]6[C@H](C)C(=O)[C@@](O)([C@H](O)[C@@]7(CO)O[C@H]7[C@H]3[C@H]1O5)[C@@H]64)O2,Activity,[1],inactive
same,Activity,[2],Active
same,Activity,[3],Active
same,Activity,[4],Dose-Dependent Effect
same,Activity,[5],Dose-Dependent Effect
same,Activity,[6],Dose-Dependent Effect
same,Activity,[7],Tde
same,Activity,[8],Dose-Dependent Effect
same,Activity,[9],Tde
same,Activity,[10],Tde
same,Activity,[11],Tde
same,Activity,J-Lat Tat-GFP Clone A2 [12],Non-Toxic
same,Activity,NH2 [13],Dose-Dependent Effect
same,Activity,J-Lat Tat-GFP Clone A2 [14],Dose-Dependent Effect
same,Activity,NH2 [15],Tde
same,Activity,J-Lat Tat-GFP Clone A2 [16],Tde
same,Activity,NH2 [17],Active
same,Activity,J-Lat Tat-GFP Clone A2 [18],Active
same,Activity,[19],inactive
same,Activity,[20],Active
same,fold change (FC),[21],2500
same,fold change (FC),[22],2500
same,Activity,[23],Tde
same,Activity,J-Lat Tat-GFP Clone A2 [24],Active
same,Activity,J-Lat Tat-GFP Clone A2 [25],Active
same,Activity,J-Lat Tat-GFP Clone A2 [26],Active

# From ChEMBL document CHEMBL5233271, “Discovering the Mechanisms of Wikstroelide E as a Potential HIV-Latency-Reversing Agent by Transcriptome Profiling” (J Nat Prod, 2021)
